Source: patent US8207178B2 (priority 2007, dated 2012)

How the values were obtained:
wild type HIV-1 = test: microbe, parasite or virus in culture; assay type: cell-based, human immunodeficiency virus type 1 (HIV-1); settings: Human immunodeficiency virus 1, Hela-JC53
HIV-1 K103N-L100I mutant = test: microbe, parasite or virus in culture; assay type: cell-based, human immunodeficiency virus type 1 (HIV-1); settings: Human immunodeficiency virus 1, HeLa, read-out: EC50 mutant K103N-L100I, mutant K103N-L100I

Q: Which EC50 (wild type HIV-1) does the source give for `Cc1cc(-c2ccc(C(N)=O)nc2)cc(C)c1Oc1nc(Nc2ccc(C#N)cc2)nc2ccn(C)c12` [Example 60, 5-(4-(2-(4-Cyanophenylamino)-5-methyl-5H-pyrrolo[3,2-d]pyrimidin-4-yloxy)-3,5-dimethyl-phenyl)picolinamide] here?
A: 1 to 10 nM

Q: And the EC50 (HIV-1 K103N-L100I mutant)?
A: > 10 nM

Q: With `Cn1cnc2c(Oc3c(Cl)cc(-c4ccc(C(N)=O)cc4)cc3Cl)nc(Nc3ccc(C#N)cc3)nc21` [Example 114, 3′,5′-dichloro-4′-(2-(4-cyanophenylamino)-9-methyl-9H-purin-6-yloxy)biphenyl-4-carboxamide] as the compound, how does the EC50 (wild type HIV-1) read?
A: < 1 nM

Q: What about the EC50 (HIV-1 K103N-L100I mutant) of the same compound?
A: > 10 nM

Q: How did the EC50 (wild type HIV-1) turn out when `Cc1cc(C#N)cc(C)c1Nc1nc(Oc2ccc(-c3ccncc3)cc2)c2nc[nH]c2n1` [Example 106, 3,5-Dimethyl-4-(6-(4-(pyridin-4-yl)phenoxy)-9H-purin-2-ylamino)benzonitrile] was run?
A: > 10 nM

Q: What about the EC50 (HIV-1 K103N-L100I mutant) of the same compound?
A: > 10 nM

Q: `Cc1cc(-c2ccc(C(N)=O)nc2)cc(C)c1Oc1nc(Nc2ccc(C#N)cc2)nc2ncn(C)c12` [Example 118, 5-(4-(2-(4-cyanophenylamino)-7-methyl-7H-purin-6-yloxy)-3,5-dimethylphenyl)picolinamide] was tested. Which EC50 (wild type HIV-1) did it give?
A: 1 to 10 nM

Q: What about the EC50 (HIV-1 K103N-L100I mutant) of the same compound?
A: 1 to 10 nM

Q: How did the EC50 (wild type HIV-1) turn out when `Cc1cc(-c2cccc(C(N)=O)c2)cc(C)c1Oc1nc(Nc2ccc(C#N)cc2)nc2ccn(C)c12` [Example 77, 4′-(2-(4-cyanophenylamino)-5-methyl-5H-pyrrolo[3,2-d]pyrimidin-4-yloxy)-3′,5′-dimethylbiphenyl-3-carboxamide] was run?
A: 1 to 10 nM

Q: What about the EC50 (HIV-1 K103N-L100I mutant) of the same compound?
A: > 10 nM

Q: For `Cc1cc(-c2ccc(C(=O)N(C)C)cn2)cc(C)c1Oc1nc(Nc2ccc(C#N)cc2)nc2[nH]cnc12` [Example 128, 6-(4-(2-(4-cyanophenylamino)-9H-purin-6-yloxy)-3,5-dimethylphenyl)-N,N-dimethylnicotinamide], which EC50 (wild type HIV-1) is on record?
A: 1 to 10 nM

Q: What about the EC50 (HIV-1 K103N-L100I mutant) of the same compound?
A: > 10 nM

Q: Which EC50 (wild type HIV-1) does the source give for `N#Cc1ccc(Nc2nc(Oc3ccc(-c4ccncc4)cc3Cl)c3[nH]cnc3n2)cc1` [Example 102, 4-(6-(2-Chloro-4-(pyridin-4-yl)phenoxy)-7H-purin-2-ylamino)benzonitrile] here?
A: < 1 nM

Q: And the EC50 (HIV-1 K103N-L100I mutant)?
A: > 10 nM

Q: With `Cc1cc(-c2ccc(C(N)=O)cc2)cc(C)c1Oc1nc(Nc2ccc(C#N)cc2)nc2c1ncn2C` [Example 109, 4′-(2-(4-cyanophenylamino)-9-methyl-9H-purin-6-yloxy)-3′,5′-dimethylbiphenyl-4-carboxamide] as the compound, how does the EC50 (wild type HIV-1) read?
A: < 1 nM

Q: What about the EC50 (HIV-1 K103N-L100I mutant) of the same compound?
A: 1 to 10 nM

Q: `Cc1cc(-c2ccc(C(=O)NC3CC3)cc2)cc(C)c1Oc1nc(Nc2ccc(C#N)cc2)nc2ccn(C)c12` [Example 92, 4′-(2-(4-cyanophenylamino)-5-methyl-5H-pyrrolo[3,2-d]pyrimidin-4-yloxy)-N-cyclopropyl-3′,5′-dimethylbiphenyl-4-carboxamide] was tested. Which EC50 (wild type HIV-1) did it give?
A: > 10 nM

Q: What about the EC50 (HIV-1 K103N-L100I mutant) of the same compound?
A: > 10 nM

Q: For `Cc1cc(-c2ccc(S(=O)(=O)N(C)C)cc2)cc(C)c1Oc1nc(Nc2ccc(C#N)cc2)nc2ccn(C)c12` [Example 42, 4′-(2-(4-Cyanophenylamino)-5-methyl-5H-pyrrolo[3,2-d]pyrimidin-4-yloxy)-N,N,3′,5′-tetramethylbiphenyl-4-sulfonamide], which EC50 (wild type HIV-1) is on record?
A: 1 to 10 nM

Q: What about the EC50 (HIV-1 K103N-L100I mutant) of the same compound?
A: > 10 nM

Q: For `Cc1cc(-c2ccc(C(N)=O)nc2)cc(C)c1Oc1nc(Nc2ccc(C#N)cc2)nc2[nH]cnc12` [Example 129, 5-(4-(2-(4-cyanophenylamino)-9H-purin-6-yloxy)-3,5-dimethylphenyl)picolinamide], which EC50 (wild type HIV-1) is on record?
A: 1 to 10 nM

Q: And the EC50 (HIV-1 K103N-L100I mutant)?
A: > 10 nM

Q: How did the EC50 (wild type HIV-1) turn out when `Cc1cc(-c2ccnnc2)cc(C)c1Oc1nc(Nc2ccc(C#N)cc2)nc2ccn(C)c12` [Example 57, 4-(4-(2,6-dimethyl-4-(pyridazin-4-yl)phenoxy)-5-methyl-5H-pyrrolo[3,2-d]pyrimidin-2-ylamino) benzonitrile] was run?
A: < 1 nM

Q: What about the EC50 (HIV-1 K103N-L100I mutant) of the same compound?
A: 1 to 10 nM

Q: For `Cc1cc(-c2cncc3ccccc23)cc(C)c1Oc1nc(Nc2ccc(C#N)cc2)nc2ccn(C)c12` [Example 40, 4-(4-(4-(Isoquinolin-4-yl)-2,6-dimethylphenoxy)-5-methyl-5H-pyrrolo[3,2-d]pyrimidin-2-ylamino) benzonitrile], which EC50 (wild type HIV-1) is on record?
A: 1 to 10 nM

Q: And the EC50 (HIV-1 K103N-L100I mutant)?
A: > 10 nM
